Where a SMILES comes first, the peptide text is derived from it.
Tests used:
HELA cells (Acc57) = assay: Cytotoxicity assay (MTT reduction), HELA cells; type: cell-based; conditions: Hela cells
Experimental: The cytotoxicity of the peptides to HELA cells (Acc57) and COS-7 cells (CRL-1651) was determined using the MTT reduction assay [see ref. 2 and 3, below]. Briefly the method was as follows: HELA cells and COS-7 cells were seeded at 7.0×10^3 and, respectively, 4.5×10^3 cells per well and grown in 96-well microtiter plates for 24 hours at 37° C. at 5% CO2. At this point, time zero (Tz) was determined by MTT reduction (see below). The supernatant of the remaining wells was discarded, and fresh medium and the peptides in serial dilutions of 12.5, 25 and 50 μM were pipetted into the wells. Each peptide concentration was assayed in triplicate. Incubation of the cells was continued for 48 hours at 37° C. at 5% CO2. Wells were then washed once with phosphate buffered saline (PBS) and subsequently 100 μl MTT reagent (0.5 mg/ml in medium RPMI1640 and, respectively, DMEM) were added to the wells. This was incubated at 37° C. for 2 hours and subsequently the medium was aspirated and 100 μl isopropanol were added to each well. The absorbance at 595 nm of the solubilized product was measured (OD595peptide). For each concentration averages were calculated from triplicates. The percentage of growth was calculated as follows: (OD595peptide-OD595Tz-OD595Empty well)/(OD595Tz-OD595Empty well)×100% and was plotted for each peptide concentration.
The LC 50 values (Lethal Concentration, defined as the concentration that kills 50% of the cells) were determined for each peptide by using the trend line function of EXCEL (Microsoft Office 2000) for the concentrations (50, 25, 12.5 and 0 μM), the corresponding growth percentages and the value −50, (=TREND(C50:C0,%50:%0,−50)).
The GI 50 (Growth Inhibition) concentrations were calculated for each peptide by using a trend line function for the concentrations (50, 25, 12.5 and 0 μg/ml), the corresponding percentages and the value 50, (=TREND (C50:C0,%50:%0,50).

[1] = target: T1, Elastase from human neutrophils (Homo sapiens, UniProt P08246); assay: Enzymatic assay, elastase; conditions: Elastase IC50
T1 sequence (P08246 30-267): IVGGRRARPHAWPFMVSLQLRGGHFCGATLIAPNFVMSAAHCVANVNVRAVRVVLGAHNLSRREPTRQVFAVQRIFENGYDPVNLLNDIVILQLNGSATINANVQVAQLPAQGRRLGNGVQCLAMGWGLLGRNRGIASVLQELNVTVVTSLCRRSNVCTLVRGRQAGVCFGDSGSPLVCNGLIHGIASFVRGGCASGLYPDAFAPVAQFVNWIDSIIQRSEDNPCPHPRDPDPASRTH

CCCC[C@@H]1NC(=O)[C@@H]2CCCN2C(=O)[C@H]2CCCN2C(=O)[C@H](Cc2ccc(O)cc2)NC(=O)[C@@H]2CSSC[C@H](NC1=O)C(=O)N[C@@H]([C@@H](C)O)C(=O)N[C@@H](C)C(=O)N[C@@H](CO)C(=O)N[C@@H]([C@@H](C)CC)C(=O)N1CCC[C@H]1C(=O)N1CCC[C@H]1C(=O)N[C@@H](Cc1ccccc1)C(=O)N2 [Ex. 89] (HELM PEPTIDE1{[Nle].C.T.A.S.I.P.P.F.C.Y.[dP].P}$PEPTIDE1,PEPTIDE1,2:R3-10:R3|PEPTIDE1,PEPTIDE1,1:R1-13:R2$$$V2.0)
Cytotoxicity LC50/GI50 Hela cells (HELA cells (Acc57)): 51 µM | IC50 [1]: 0.043 µM

CCCC[C@@H]1NC(=O)[C@@H]2CCCN2C(=O)[C@H]2CCCN2C(=O)[C@H](CCCNC(=N)N)NC(=O)[C@@H]2CSSC[C@H](NC1=O)C(=O)N[C@@H]([C@@H](C)O)C(=O)N[C@@H](C)C(=O)N[C@@H](CO)C(=O)N[C@@H]([C@@H](C)CC)C(=O)N1CCC[C@H]1C(=O)N1CCC[C@H]1C(=O)N[C@@H](CCC(N)=O)C(=O)N2 [Ex. 92] (HELM PEPTIDE1{[Nle].C.T.A.S.I.P.P.Q.C.R.[dP].P}$PEPTIDE1,PEPTIDE1,2:R3-10:R3|PEPTIDE1,PEPTIDE1,1:R1-13:R2$$$V2.0)
Cytotoxicity LC50/GI50 Hela cells (HELA cells (Acc57)): 93 µM | IC50 [1]: 0.043 µM

CC[C@H](C)[C@@H]1NC(=O)[C@H](CO)NC(=O)[C@H](C)NC(=O)[C@H]([C@@H](C)O)NC(=O)[C@@H]2CSSC[C@H](NC(=O)[C@H](CCC(N)=O)NC(=O)[C@@H]3CCCN3C(=O)[C@@H]3CCCN3C1=O)C(=O)N[C@@H](Cc1ccc(O)cc1)C(=O)N1CCC[C@@H]1C(=O)N1CCC[C@H]1C(=O)N[C@@H](CCC(C)C)C(=O)N2 [Ex. 100] (HELM PEPTIDE1{[CC(C)CC[C@H](N[*:1])C(=O)[*:2]].C.T.A.S.I.P.P.Q.C.Y.[dP].P}$PEPTIDE1,PEPTIDE1,2:R3-10:R3|PEPTIDE1,PEPTIDE1,1:R1-13:R2$$$V2.0)
Cytotoxicity LC50/GI50 Hela cells (HELA cells (Acc57)): 83 µM

CCCC[C@@H]1NC(=O)[C@@H]2CCCN2C(=O)[C@H]2CCCN2C(=O)[C@H](Cc2ccc(O)cc2)NC(=O)[C@@H]2CSSC[C@H](NC1=O)C(=O)N[C@@H]([C@@H](C)O)C(=O)N[C@@H](C)C(=O)N[C@@H](CO)C(=O)N[C@@H](CC1CCCC1)C(=O)N1CCC[C@H]1C(=O)N1CCC[C@H]1C(=O)N[C@@H](CCC(N)=O)C(=O)N2 [Ex. 112] (HELM PEPTIDE1{[Nle].C.T.A.S.[O=C([C@H](CC1CCCC1)N[*:1])[*:2]].P.P.Q.C.Y.[dP].P}$PEPTIDE1,PEPTIDE1,2:R3-10:R3|PEPTIDE1,PEPTIDE1,1:R1-13:R2$$$V2.0)
Cytotoxicity LC50/GI50 Hela cells (HELA cells (Acc57)): 33 µM

CC[C@H](C)[C@@H]1NC(=O)[C@@H]2CCCN2C(=O)[C@H]2CCCN2C(=O)[C@H](Cc2ccc(O)cc2)NC(=O)[C@@H]2CSSC[C@H](NC1=O)C(=O)N[C@@H]([C@@H](C)O)C(=O)N[C@@H](C)C(=O)N[C@@H](CO)C(=O)N[C@@H](CC(C)C)C(=O)N1CCC[C@H]1C(=O)N1CCC[C@H]1C(=O)N[C@@H](Cc1ccc(O)cc1)C(=O)N2 [Ex. 114] (HELM PEPTIDE1{I.C.T.A.S.L.P.P.Y.C.Y.[dP].P}$PEPTIDE1,PEPTIDE1,2:R3-10:R3|PEPTIDE1,PEPTIDE1,1:R1-13:R2$$$V2.0)
Cytotoxicity LC50/GI50 Hela cells (HELA cells (Acc57)): 34 µM | IC50 [1]: 0.047 µM

CCCC[C@@H]1NC(=O)[C@@H]2CCCN2C(=O)[C@@H](CCCNC(=N)N)NC(=O)[C@H](Cc2ccc(O)cc2)NC(=O)[C@@H]2CSSC[C@H](NC1=O)C(=O)N[C@@H]([C@@H](C)O)C(=O)N[C@@H](C)C(=O)N[C@@H](CO)C(=O)N[C@@H]([C@@H](C)CC)C(=O)N1CCC[C@H]1C(=O)N1CCC[C@H]1C(=O)N[C@@H](CCC(N)=O)C(=O)N2 [Ex. 117] (HELM PEPTIDE1{A.S.I.P.P.Q.C.Y.[dR].P.[Nle].C.T}$PEPTIDE1,PEPTIDE1,7:R3-12:R3|PEPTIDE1,PEPTIDE1,1:R1-13:R2$$$V2.0)
Cytotoxicity LC50/GI50 Hela cells (HELA cells (Acc57)): 29 µM | IC50 [1]: 0.033 µM

Source: US8658604B2, “Template-fixed beta-hairpin peptidomimetics with protease inhibitory activity” (Polyphor Ltd, priority 2005, dated 2014)
